# Test results from patent US11401303B2, “Synthetic peptide BRAP and application in preparation of anti-inflammatory drug for COVID-19 thereof” (TAIAN CITY QIHANG BIOTECHNOLOGY CO., priority 2020, dated 2022).
# What was measured:
# [1] = test system: OVA-induced allergic rhinitis; test: Rat allergic nasal inflammation (OVA-induced allergic rhinitis), intranasal administration; assay type: in vivo, SD rat; conditions: all dose groups of the peptide; bilateral nasal cavities 50 μL/side, 4 weeks, continued OVA provocation
# Procedure: SD rat modeling: two stages of intraperitoneal injection for sensitization and intranasal dripping for stimulation. Ovalbumin was injected intraperitoneally, and 1 mg ovalbumin (V-class Sigma, USA) was dissolved in 1 ml normal saline, and 30 mg of aluminum hydroxide was added as an immunologic adjuvant. Each rat was intraperitoneally injected 1 ml ovalbumin suspension prepared above with 1 ml/time every other day and for 7 times in total; and stimulated intranasally with ovalbumin on the 15th day; 20 mg ovalbumin (V-class Sigma, USA) were dissolved in 1 ml normal saline to be prepared into a 2% solution; and the 2% ovalbumin solution was used for stimulation by nasal dripping; and 50 ul nasal drips were administered in each of the nasal cavities of each rat for 7 consecutive days.
# Blank control group: 30 mg of aluminum hydroxide+1 ml of normal saline were mixed evenly, and then injected intraperitoneally; and the method was the same as the above.
# Normal saline was dripped into nasal cavities on the 15th day.
# After the final nasal dripping was performed, each rat was observed and evaluated according to a scoring table: Sneezing, nose scratching, gasping and nasal secretions
# 1. Administration way: a drug was administered with a micro-sampling gun, bilateral nasal cavities of a rat were administered with 50 μL/side, after being administered for 20 min, a 2% ovalbumin solution was administered to bilateral nasal cavities of the rat; 50 μL/side nasal dripping was administered for provocation; the above treatment was performed for 4 consecutive weeks to observe the pharmacodynamic effect.
# High-dose synthetic peptide brap: a synthetic peptide brap freeze-dried powder (5 mg/bottle) was taken, and 1.63 ml sterile saline solution was added for dissolving;
# medium-dose synthetic peptide brap: a synthetic peptide brap freeze-dried powder (5 mg/bottle) was taken, and 4.89 ml sterile saline solution was added for dissolving;
# low-dose synthetic peptide brap: a synthetic peptide brap freeze-dried powder (5 mg/bottle) was taken, and 14.67 ml sterile saline solution was added for dissolving;
# [2] = test system: LPS-induced acute lung injury; test: LPS-induced acute lung injury in mice, HE pathological examination of lung tissues; assay type: in vivo, Balb/C mice; conditions: 16 mg/kgBW via tail vein once/day; LPS 5 mg/kgBW i.p.
# Procedure: 1. Grade-SPF male Balb/C mice, body weight: 20±2 g, and n=48
# 3. Grouping and treatment: mice were randomly divided into 8 groups (A-H), 6 pcs./group;
# 3-1: 3 different treatments were given for 3 consecutive days respectively before modeling:
# A. normal control group: normal saline was injected via the tail vein for once/day;
# B. LPS model group: normal saline was injected via the tail vein for once/day;
# C. model sp2 administration group: sp2 (16 mg/kgBW) was injected via the tail vein for once/day;
# D. model high-dose brap administration group: brap (16 mg/kgBW) was injected via the tail vein for once/day;
# E. model medium-dose brap administration group: brap (8 mg/kgBW) was injected via the tail vein for once/day;
# F. model low-dose brap administration group: brap (4 mg/kgBW) was injected via the tail vein for once/day;
# G. model brap intranasal administration group: brap (3 mM) was administered nasal administration on both sides, 15 μl/each side; once a day;
# H. model dexamethasone administration group (a positive control group): dexamethasone, DEX, 5 mg/kg was injected intraperitoneally for once a day.
# Animals from groups A-H were continuously administered the above treatments for 30 min respectively, then group A was intraperitoneally injected isopyknic normal saline, and other groups were intraperitoneally injected LPS 5 mg/kgBW.
# 1. Tissue section and extending
# 2. Tissues were dewaxed and hydrated.
# 3. Tissues were dyed with a hematoxylin stain for 5-20 min (adjusted according to different tissues and experimental requirements), and washed by tap water.
# 4. Then, tissues were differentiated by a differentiation solution for 30 s.
# 5. Tissues were soaked by tap water for 15 min or warm water (about 50° C.) for 5 min.
# 6. Tissues were put in an Eosin stain for 2 min (adjusted according to different tissues and experimental requirements), and washed by tap water.
# 7. Then, the tissues were soaked by tap water for 5 min.
# 8. Dehydration by gradient alcohol: Tissues were dehydrated by 95%, 100% I, and 100% II for 1 min each;
# 9. Transparency by xylene: tissues were subjected to xylene I and II for 10 min.
# 10. Neutral balsam mounting.
# 11. Then, it was put and dried in an oven at 60° C., and observed under microscope.
substance,measurement,setting,value
sp2: control synthetic peptide with an amino acid sequence as shown in SEQ ID No: 2 (RVLNGPEEEAAAPAE) [reference compound],Scoring change before and after treatment,[1],increases
same,Lung tissue pathology (HE),[2],inflammatory cell infiltration is obvious
